The text below walks through data of ChEMBL document CHEMBL1201862, “PubChem BioAssay data set” (2004).

Some test systems named below: MDA-MB-435; UACC-62; SNB-75; SK-MEL-5; SK-MEL-2; HT-29; SF-539; 786-0; NCI/ADR-RES; SW-620; OVCAR-8; UO-31; U-251; MDA-N; SF-268; MDA-MB-231; CCRF-CEM; LOX IMVI; CAKI-1; SR.
Assay in all cases: NCI-60 cell line screen, 48 h

Molecules are shown by their SMILES.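 Cells were grown in 96-well plates and exposed to each compound for 48 hours at five concentrations; endpoints were interpolated linearly between bracketing concentrations, or set to the highest concentration if not reached. GI50 marks 50% less growth.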 Activity calls are given as the source filed them. Cut-off read from the data, not from the text of the source: active = GI50 up to about 1.1 µM and inactive = higher. Some results are limits rather than exact numbers.

Consider `Nc1nc(Cl)cc(NCC2(O)CCCC2)n1`, for which the GI50 in the assay with MDA-MB-435, in the assay on UACC-62, in the assay with SNB-75, with SK-MEL-5, with SK-MEL-2 and in the assay with HT-29 was > 100 µM (inactive) in each case. Besides, the GI50 was > 100 µM (inactive) in the assay on SF-539; > 100 µM (inactive) in the assay on 786-0; > 100 µM (inactive) in the assay on NCI/ADR-RES; > 100 µM (inactive) in the assay with SW-620; > 100 µM (inactive) in the assay on OVCAR-8; 78.9 µM (inactive) in the assay with UO-31. Moreover, the GI50 in the assay with U-251, in the assay on MDA-N, in the assay on SF-268, in the assay on MDA-MB-231, with CCRF-CEM and in the assay on LOX IMVI was > 100 µM (inactive) each time. Besides, the GI50 in the assay with CAKI-1 and in the assay with SR was > 100 µM (inactive) throughout.

For `C#CCn1c2c(c3ccccc3c1=O)C(=O)c1ccccc1-2`, the GI50 is 67.3 µM (inactive) in the assay on MDA-MB-435; 21.4 µM (inactive) in the assay on UACC-62; 13.4 µM (inactive) in the assay on SNB-75; 2.37 µM (inactive) in the assay on SK-MEL-5; 29.9 µM (inactive) in the assay on SK-MEL-2; 10.7 µM (inactive) in the assay with HT-29. The GI50 in the assay on SF-539 is 11.6 µM (inactive); with 786-0, 14 µM (inactive); in the assay with NCI/ADR-RES it was 21.5 µM (inactive); with SW-620, 23.9 µM (inactive); in the assay with OVCAR-8, 19.6 µM (inactive); in the assay with UO-31, 2 µM (inactive). Moreover, the GI50 in the assay on U-251 was 15.2 µM (inactive); in the assay with MDA-N, 37.7 µM (inactive); with SF-268, 14 µM (inactive); in the assay on MDA-MB-231, 15.2 µM (inactive); in the assay on CCRF-CEM, > 100 µM (inactive); in the assay on LOX IMVI, 18.2 µM (inactive). The figures for the GI50 with CAKI-1 and in the assay with SR were 12 µM (inactive) and 4.49 µM (inactive), respectively.

For the compound `CC(=O)Nn1cnc(C(=N)C#N)c1N`, the GI50 with MDA-MB-435, in the assay with UACC-62, in the assay on SNB-75, in the assay with SK-MEL-5, with SK-MEL-2 and in the assay with HT-29 was > 100 µM (inactive) in each case. The GI50 with SF-539, in the assay with 786-0, in the assay with NCI/ADR-RES, in the assay on SW-620, in the assay on OVCAR-8 and in the assay on UO-31 was > 100 µM (inactive) in each case. Further, the GI50 with U-251, in the assay with MDA-N, with SF-268, in the assay on MDA-MB-231, in the assay on CCRF-CEM and in the assay on LOX IMVI was > 100 µM (inactive) each time. For the same compound, the GI50 with CAKI-1 and with SR was > 100 µM (inactive) each time.

For `CCO/N=C(/CC)c1ccc(Br)s1`, the GI50 with MDA-MB-435, with UACC-62, in the assay with SNB-75, in the assay with SK-MEL-5, with SK-MEL-2 and with HT-29 was > 100 µM (inactive) in each case. Also, the GI50 with SF-539, in the assay on 786-0, in the assay with NCI/ADR-RES, in the assay with SW-620, in the assay with OVCAR-8 and with UO-31 was > 100 µM (inactive) each time. The GI50 in the assay on U-251 is > 100 µM (inactive); in the assay with MDA-N, > 100 µM (inactive); in the assay with SF-268 it was > 100 µM (inactive); in the assay with MDA-MB-231, > 100 µM (inactive); in the assay on CCRF-CEM it was > 100 µM (inactive); in the assay on LOX IMVI, 80.5 µM (inactive). Moreover, the GI50 with CAKI-1 was > 100 µM (inactive); with SR, 52.2 µM (inactive).

For the compound `CCOC(=O)C(=O)/C(=C/n1c(=S)[nH]c2ccc([N+](=O)[O-])cc21)C(=O)OCC`, the GI50 in the assay on MDA-MB-435 is > 100 µM (inactive); in the assay with UACC-62 it was > 100 µM (inactive); in the assay on SNB-75, 90.4 µM (inactive); with SK-MEL-5 it was 65.5 µM (inactive); with SK-MEL-2 it was > 100 µM (inactive); in the assay on HT-29 it was > 100 µM (inactive). Besides, the GI50 with SF-539, in the assay with 786-0, with NCI/ADR-RES, in the assay on SW-620, in the assay with OVCAR-8 and in the assay on UO-31 was > 100 µM (inactive) in each case. The GI50 with U-251, with MDA-N, in the assay on SF-268, in the assay on MDA-MB-231, in the assay on CCRF-CEM and with LOX IMVI was > 100 µM (inactive) throughout. Further, the GI50 in the assay on CAKI-1 and with SR was > 100 µM (inactive) throughout.

As to `CC(C)(C)c1cc(/C=C(\C#N)C(=O)NCCO)cc(C(C)(C)C)c1O`, the GI50 is 21.1 µM (inactive) in the assay on MDA-MB-435; 13.6 µM (inactive) in the assay on UACC-62; 31.8 µM (inactive) in the assay with SNB-75; 14.9 µM (inactive) in the assay with SK-MEL-5; 17.6 µM (inactive) in the assay on SK-MEL-2; 21 µM (inactive) in the assay with HT-29. In addition, the GI50 is 18.3 µM (inactive) in the assay with SF-539; 21.8 µM (inactive) in the assay with 786-0; 23 µM (inactive) with NCI/ADR-RES; 28.8 µM (inactive) with SW-620; 38.6 µM (inactive) in the assay on OVCAR-8; 19.9 µM (inactive) in the assay with UO-31. The GI50 in the assay with U-251 is 18 µM (inactive); with MDA-N, 18.7 µM (inactive); with SF-268, 31.9 µM (inactive); with MDA-MB-231, 18.4 µM (inactive); in the assay on CCRF-CEM, 15.1 µM (inactive); in the assay with LOX IMVI, 25.1 µM (inactive). Moreover, the GI50 in the assay on CAKI-1 is 24.5 µM (inactive); in the assay with SR it was 17.5 µM (inactive).

On to `Cc1coc2c1CC1OC1(C)CCC1OC1(C)C2` (centres undefined), for which the GI50 in the assay on MDA-MB-435, in the assay with UACC-62, in the assay on SNB-75, in the assay on SK-MEL-5, with SK-MEL-2 and with SF-539 was > 100 µM (inactive) throughout. In addition, the GI50 in the assay on 786-0, in the assay with NCI/ADR-RES, in the assay on SW-620, in the assay on OVCAR-8, in the assay on UO-31 and in the assay on U-251 was > 100 µM (inactive) in each case. In addition, the GI50 with MDA-N, with SF-268, in the assay with MDA-MB-231, in the assay with CCRF-CEM, in the assay on LOX IMVI and with CAKI-1 was > 100 µM (inactive) each time. In the assay on SR, the GI50 is > 100 µM (inactive).

Take `CCS(=O)(=O)CCn1cnc2c1c(=O)n(C)c(=O)n2C`: the GI50 with MDA-MB-435, in the assay with UACC-62, in the assay on SNB-75, in the assay on SK-MEL-5, with SK-MEL-2 and in the assay on HT-29 was > 100 µM (inactive) throughout. In addition, the GI50 in the assay on SF-539, in the assay with 786-0, in the assay on NCI/ADR-RES, in the assay on SW-620, in the assay with OVCAR-8 and with UO-31 was > 100 µM (inactive) in each case. Also, the GI50 with U-251, in the assay on MDA-N, in the assay on SF-268, in the assay with MDA-MB-231, in the assay with CCRF-CEM and with LOX IMVI was > 100 µM (inactive) each time. Further, the GI50 in the assay on CAKI-1 was > 100 µM (inactive); with SR, 0.0318 µM (active).

In the case of `CC(CC(=O)O)C(C(=O)O)C(=O)O` (centres undefined), the GI50 in the assay with MDA-MB-435, in the assay with UACC-62, in the assay on SNB-75, in the assay with SK-MEL-5, with SK-MEL-2 and in the assay with HT-29 was > 100 µM (inactive) each time. Further, the GI50 in the assay on SF-539, with 786-0, in the assay on NCI/ADR-RES, in the assay with SW-620, in the assay with OVCAR-8 and in the assay on UO-31 was > 100 µM (inactive) in each case. The GI50 with U-251, with MDA-N, with SF-268, in the assay on MDA-MB-231, in the assay with CCRF-CEM and in the assay on LOX IMVI was > 100 µM (inactive) throughout. The GI50 in the assay on CAKI-1 and in the assay on SR was > 100 µM (inactive) each time.

Take `Cc1sc2ncnc(NCCc3ccccc3)c2c1C`: the GI50 in the assay with MDA-MB-435 was 13.7 µM (inactive); with UACC-62, 11.9 µM (inactive); in the assay on SNB-75, 16.4 µM (inactive); with SK-MEL-5, 1.33 µM (inactive); in the assay with SK-MEL-2, 14.8 µM (inactive); in the assay on HT-29, 14.6 µM (inactive). For the same compound, the GI50 in the assay on SF-539 was 15 µM (inactive); with 786-0 it was 16 µM (inactive); with NCI/ADR-RES, 6.22 µM (inactive); with SW-620 it was 25.5 µM (inactive); in the assay on OVCAR-8, 11.8 µM (inactive); with UO-31, 15.6 µM (inactive). In addition, the GI50 is 11.6 µM (inactive) with U-251; 10.1 µM (inactive) in the assay with MDA-N; 21.8 µM (inactive) in the assay on SF-268; 14.6 µM (inactive) in the assay on MDA-MB-231; 13 µM (inactive) with CCRF-CEM; 4.82 µM (inactive) in the assay on LOX IMVI. In addition, the values for the GI50 in the assay with CAKI-1 and with SR were 7.53 µM (inactive) and 0.579 µM (active), respectively.
